In patent publication US20140275090A1, “BILE ACID RECYCLING INHIBITORS FOR TREATMENT OF PRIMARY SCLEROSING CHOLANGITIS AND INFLAMMATORY BOWEL DISEASE” (Lumena Pharmaceuticals, Inc., priority 2013, published 2014):
Several values for one entry are separate records, joined by “and”; a condition that tells them apart may be missing. Equal entries are not always repeated.

Legend:
[1] = tested on: GLP-2; experiment: ZDF rat study: GLP-2 in plasma; assay type: in vivo; details: non-fasted ZDF rats, 2 weeks treatment, higher doses
Procedure: (§1) Animals were acclimatized for 5-7 days after arrival.
(§2) Key efficacy, metabolic and liver function parameters were assessed: Total 24 hr fecal and total serum bile acid concentrations; Plasma ALP, ALT, AST, BUN, creatinine; Fasting glucose and insulin concentrations, glucose/insulin ratio, blood percent HbA1c and Oral Glucose Tolerance Test (glucose excursion, insulin, GLP-1); Plasma GLP-1, GLP-2 and FGF21 concentrations.

[2] = tested on: Hemoglobin A1c (HbA1c); experiment: ZDF rat 3-week study: baseline-corrected percent HbA1c; assay type: in vivo; details: ZDF rats, twice daily oral gavage
Procedure: as §1, §2

[3] = tested on: liver injury after partial bile duct ligation; experiment: Partial bile duct ligation (pBDL) in rats: liver histology and cholangiocyte mitotic figures; assay type: in vivo, rat; details: for Total number of cholangiocytes in 50 fields / Total number of mitotic figures in 50 fields: pBDL rat, 10 mg/kg once daily oral gavage
Procedure: Rats were anesthetized with isoflurane, the common bile duct exposed by midline laparotomy and a short length of PE-10 tubing placed parallel to the bile duct. A ligature of 4-0 silk suture was tied tightly around the duct and tubing after which the tubing was removed resulting in constriction of the duct lumen without complete obstruction SC-435 was administered to the test group by once daily oral gavage (10 mg/kg) starting one day prior to pBDL surgery.
All animals were euthanized on Day 14. The liver was collected from all animals and preserved in 10% formalin. The preserved livers from all animals were processed, embedded in paraffin, sectioned and stained with hematoxylin and eosin (H&E). The resulting slides were evaluated. Microscopic findings, when present, were graded subjectively on a scale of 0 to 4 according to the intensity and extent of change, where 0=finding not present; 1=minimal; 2=mild; 3=moderate and 4=marked. Additionally, quantitation of cholangiocyte (bile duct epithelial cells) mitotic nuclei was accomplished by counting the number of mitotic cells and the total number of cholangiocytes in 50 randomly selected high-powered (40× objective) fields.

[4] = tested on: plasma bile acids; experiment: Plasma bile acid concentrations in ZDF rats, oral gavage twice a day for 2 weeks; assay type: in vivo, ZDF rat
Procedure: Male Zucker diabetic fatty rats (ZDF/GmiCrl-fa/fa) were purchased from Charles River (Raleigh, N.C.) and housed under controlled conditions (12:12 light-dark cycle, 24° C. and 50% relative humidity) with free access to rodent food (Purina 5008, Harlan Teklad, Indianapolis, Ind.). All rats arrived at seven weeks of age (±3 days). After a one-week acclimation period, rats were anesthetized with isoflurane (Abbott Laboratories, IL) and tail-vein blood samples were collected at 9 am without fasting. Blood glucose levels were measured using a glucometer (Bayer, Leverkusen, Germany). In order to ensure balanced treatment groups, ZDF rats were assigned to six treatment groups based upon baseline glucose: vehicle (0.5% HPMC, 0.1% Tween80) and five doses of 264W94 (0.001, 0.01, 0.1, 1, 10 mg/kg). […]
(§3) Non-esterified fatty acids (NEFA), bile acids, and bile acids in fecal extraction were measured using the Olympus AU640 clinical chemistry analyzer (Beckman Coulter, Irving, Tex.).
Male ZDF rats (n=4) were administered vehicle, SC-435 (1, 10 or 30 mg/kg) or LUM002 (0.3, 1, 3, 10 or 30 mg/kg) by oral gavage twice a day for 2 weeks. Plasma bile acid levels were determined at the end of the second week. […] Data are expressed as mean values ±SEM.

[5] = tested on: total serum bile acids; experiment: ZDF rat 3-week study: plasma total serum bile acids; assay type: in vivo; details: ZDF rats, twice daily oral gavage, Week 3
Procedure: as §1, §2

[6] = tested on: plasma ALP, ASAT, ALAT; experiment: ZDF rat 3-week study: liver function (ALP, ASAT, ALAT); assay type: in vivo; details: ZDF rats, twice daily oral gavage, Week 3
Procedure: as §1, §2

[7] = tested on: plasma lipase, plasma amylase; experiment: ZDF rat 3-week study: exocrine pancreas function (plasma lipase, amylase); assay type: in vivo; details: ZDF rats; for Plasma Amylase: Week 3; for Plasma Lipase: Week 3, higher doses
Procedure: as §1, §2

[8] = tested on: fecal bile acids; experiment: Fecal bile acid excretion in ZDF rats after oral 264W94; assay type: in vivo, ZDF rat; details: 0.001-10 mg/kg oral gavage twice a day, 2 weeks
Procedure: Male Zucker diabetic fatty rats (ZDF/GmiCrl-fa/fa) were purchased from Charles River (Raleigh, N.C.) and housed under controlled conditions (12:12 light-dark cycle, 24° C. and 50% relative humidity) with free access to rodent food (Purina 5008, Harlan Teklad, Indianapolis, Ind.). All rats arrived at seven weeks of age (±3 days). After a one-week acclimation period, rats were anesthetized with isoflurane (Abbott Laboratories, IL) and tail-vein blood samples were collected at 9 am without fasting. Blood glucose levels were measured using a glucometer (Bayer, Leverkusen, Germany). In order to ensure balanced treatment groups, ZDF rats were assigned to six treatment groups based upon baseline glucose: vehicle (0.5% HPMC, 0.1% Tween80) and five doses of 264W94 (0.001, 0.01, 0.1, 1, 10 mg/kg). All treatments were given via oral gavage twice a day and animals were followed for two weeks with blood samples collected from tail vein at the end of each week at 9 am without fasting. Fecal samples were collected for 24 hours during the second week of treatment.
as §3

[9] = Pharmacokinetics of LUM002 single 100 mg oral solution in healthy male subjects; assay type: in vivo, human
Procedure: Healthy male subjects, from 18 to 45 years of age, were given a single oral solution dose (100 mg in 100 mL) of LUM002 under fasting conditions. Blood samples for the determination of LUM002 plasma concentration were collected predose and 0.5, 1, 2, 3, 4, 5, 6, 8, 10, 12, 16, 24, and 48 hours after treatment administration. Plasma was obtained by centrifugation and […] processed for protein precipitation, centrifuged again to remove the precipitate and the supernatant prepared for LC-MS/MS analysis. LUM002 plasma concentrations were determined using a validated liquid chromatography tandem mass spectrometry (LC-MS/MS) assay with a lower limit of quantification (LLOQ) of 0.1 ng/mL. LUM002 plasma concentrations were used to determine the following pharmacokinetic parameters using standard noncompartmental techniques: Cmax, Tmax, AUCslast, and, if applicable due to the low-absorbable characteristics of LUM002, also AUC, AUC0-24 and t1/2z.

[10] = Pharmacokinetics of [14C]LUM002 after single PO or IV administration to rats; assay type: in vivo, Sprague Dawley Rat
Procedure: To each rat either a single oral (PO; 20 mg/kg free acid) or a single intravenous (IV; 2 mg/kg free acid) dose of [^14C]LUM002 was administered. For PO and IV administration, the test substance was prepared with the adequate amount of water to reach a solution with a concentration of approximately 4 mg/g (PO) and 1 mg/g (IV). Oral administration was a gavage using a stomach tube and IV administration was a bolus injection into the tail vein. Exact doses administered to animals were calculated according to syringe weights.
The doses of radioactivity actually administered were determined by using standards prior to and after treatment of the animals. Blood—Animals were anaesthetized (Isoflurane) for blood sampling (3 animals/time point) and then euthanized by […]. Blood samples (maximal volume from each animal approx. 8 mL) were withdrawn from the abdominal aorta into containers containing a small amount of lithium heparin. and samples were centrifuged for 2 minutes at 1540 g. Aliquots (100 μL) of blood were used for hematocrit determination. Animals for the control groups (male and/or female) were used as predose animals for sampling of untreated biological samples (blood and plasma or liver, myocardium, kidneys only from male control animals). Plasma—To obtain plasma, blood samples were centrifuged for 10 minutes and stored cooled before final division.
Bioanalytical analysis −50 μL of plasma samples were placed into an 1.5 mL reaction tube. 5 μL methanol was added to each sample. For protein precipitation, 100 μL of the internal standard working solution (100 ng/mL of benzyl-13C6-LUM002 in acetonitrile) and 50 μL acetonitrile were added. In case of double blank samples, pure acetonitrile was added. Tubes were sealed and mixed thoroughly for 10 seconds. The tubes were centrifuged for 5 minutes at ≧3000 g. 50 μL of the clear supernatant was transferred into an autoinjector vial and were diluted with 50 μL deionized water. Analysis of samples was performed by using LC-MS/MS (injection volume 50-75 μL) with a lower limit of quantification in the assay of 1 ng/mL for LUM002.

[11] = tested on: fecal excretion of [14C]taurocholic acid (TCA); experiment: Fecal excretion of [14C]taurocholic acid in Syrian hamster after LUM002; assay type: in vivo; details: nonfasted Golden Syrian hamsters, oral gavage, 24 h feces
Procedure: To study the effect of LUM002 on fecal excretion of [^14C]taurocholic acid (TCA) in the Syrian hamster in vivo, [^14C]TCA was administered intraperitoneally 1 hour before dosing the test compound. Each animal was dosed with […] [^14C]TCA. LUM002 was dosed by oral gavage (5 mL/kg per administration) in either 5% (v/v) Solutol with 0.5% hydroxyethylcellulose (HEC) or 0.5% HEC alone. The first half of dose of test compound/vehicle was given 1 hour after [^14C]TCA injection, followed by the second half of dose 7 hours after the first dose of test compound/vehicle. Feces were collected for 24 hours after [^14C]TCA administration and aliquots from feces were combusted for determination of [^14C] excretion.
The ED200 (dose which doubles the fecal excretion of [^14C] label vs. control from dose response curve, including 95% Confidence interval) was calculated from a dose response curve.

In the case of `CCCCC1(CCCC)CS(=O)(=O)c2ccc(N(C)C)cc2[C@@H](c2ccc(OCCCC[N+]34CCN(CC3)CC4)cc2)[C@H]1O.CS(=O)(=O)[O-]` [SC-435, 1-[4-[4-[(4R,5R)-3,3-dibutyl-7-(dimethylamino)-2,3,4,5-tetrahydro-4-hydroxy-1,1-dioxido-1-benzothiepin-5-yl]phenoxy]butyl]-4-aza-1-azoniabicyclo[2.2.2]octane methanesulfonate salt], the GLP-2 in plasma [1] was “significant elevations”, the “Baseline-corrected Percent Hemoglobin A1c (HbA1c)” value [2] was “significant dose-dependent reductions” and the Hepatocyte necrosis ([3]; pBDL rat livers, Day 14) was “not present”. The “bile duct proliferation, mixed inflammatory cell infiltration, spindle cell proliferation vs untreated rat livers” value ([3]; pBDL rat livers, Day 14) was “reduced incidence and intensity”, the “hepatic necrosis and inflammatory cell infiltration” value ([3]; pBDL rat livers, by 14 days) was “less hepatic necrosis and inflammatory cell infiltration” and the “Total number of cholangiocytes in 50 fields” value ([3]; Day 14, AVG) was 533. For the same molecule, the “Total number of mitotic figures in 50 fields” value ([3]; Day 14, AVG) was 0, the “Total number of mitotic figures in 50 fields” value ([3]; Day 14, individual rats) was 0 and the “Total number of cholangiocytes in 50 fields” value ([3]; Day 14, individual rats, methanesulfonate salt, 10 mg/kg) was 662 and 404. The “mitotic figures in livers” value ([3]; pBDL rats, 14 days post surgery) was “No mitotic figures were observed”, the “morphologic features of liver injury associated cholestasis” value ([3]; partial bile duct ligation, rats) was “appeared to ameliorate or inhibit” and the “Plasma bile acid levels” value ([4]; ZDF rats, 1, 10 or 30 mg/kg twice a day) was “decreased”. The “Plasma Total Serum Bile Acids Concentrations” value [5] was “statistically significant reductions”, the “Plasma Alkaline Phosphatase (ALP)” value [6] was “significant reductions” and the “Plasma Amylase” value [7] was “Neither LUM002 nor SC-435 cause a statistically significant changes”. For the same molecule, the “Plasma Lipase” value [7] was “statistically significant reductions”.

With `CCCC[C@]1(CC)CS(=O)(=O)c2cc(OC)c(OC)cc2[C@@H](c2ccccc2)N1` [Compound 264W94] the “elevation of fecal bile acid concentrations vs vehicle treated rats” value [8] was “up to 6.5 fold”.

In the case of `CCCC[C@]1(CC)CS(=O)(=O)c2ccc(N(C)C)cc2[C@@H](c2cccc(NC(=O)N[C@@H]3O[C@H](COS(=O)(=O)[O-])[C@@H](O)[C@H](OCc4ccccc4)[C@H]3O)c2)[C@H]1O.CCO.O.[K+]` [LUM002, potassium((2R,3R,4S,5R,6R)-4-benzyloxy-6-{3-[3-((3S,4R,5R)-3-butyl-7-dimethylamino-3-ethyl-4-hydroxy-1,1-dioxo-2,3,4,5-tetrahydro-1H-benzo[b]thiepin-5-yl)-phenyl]-ureido}-3,5-dihydroxy-tetrahydro-pyran-2-ylmethyl)sulphate ethanolate, hydrate], the t1/2 ([9]; 100 mg oral solution, fasting, individual subject) was 3.39 h, the dose systemically absorbed ([9]; healthy male subjects, 100 mg) was “Less than 1%” and the GLP-2 in plasma [1] was “significant elevations”. The “Baseline-corrected Percent Hemoglobin A1c (HbA1c)” value [2] was “significant dose-dependent reductions”, the “Plasma bile acid levels” value ([4]; ZDF rats, 0.3, 1, 3, 10 or 30 mg/kg twice a day) was “decreased” and the “Plasma Total Serum Bile Acids Concentrations” value [5] was “statistically significant reductions”. The “Plasma Alkaline Phosphatase (ALP)” value [6] was “significant reductions”, the “Plasma Aspartate Aminotransferase (ASAT)” value [6] was “statistically significant reduction” and the “Plasma Amylase” value [7] was “Neither LUM002 nor SC-435 cause a statistically significant changes”. The “Plasma Lipase” value [7] was “statistically significant reductions”, the AUCinf ([10]; male rat, IV bolus 2 mg/kg free acid) was 0.9 ng·h/mL and the “plasma exposure, 3 female and 1 male animal out of 72” value ([10]; rat, PO 20 mg/kg, 2 or 4 h after administration) was 1 to 5 ng/mL. The “plasma exposure, all other animals” value ([10]; rat, PO 20 mg/kg, limit of quantitation 1 ng/mL) was < 1 ng/mL, the dose systemically absorbed ([10]; rats) was “Less than 2%” and the “effect on fecal excretion of bile acids” value [11] was “significantly increased”.
